Experimental findings from patent US20180185423A1, “SEAWEED EXTRACTS WITH ANTI-CANCER ACTIVITY” (OCEANS LTD., priority 2015, published 2018) are described below.

“And” between values parts separate entries of the source, which are not always exact repeats. Equal values may be shown once.

What all share (test): CIMA assay (colorimetric indicator of metabolic activity), 72 h exposure
For one series, the system named is A549 (lung carcinoma). The class given is cell-based, human. The settings on record: A549, SDS 5% control; 0 = 100.0. As for the experimental part:
(§1) Stock solutions of the extracts were prepared in dimethylsulfoxide (DMSO) at 10 mg/mL and stored in 200 μl aliquots at −20° C. until analysis. This preparation ensured that the DMSO delivered to cells in culture never exceeded 1%.
(§2) Prepared extracts were assessed following chronic exposure conditions in which cells were seeded at 2×10^3 cells/well (96 wells plate) and incubated with test compounds for 72 h. Each compound was evaluated over a range of concentrations (0, 10, 25, 50 or 100 μg/ml). Cell proliferation was initially assessed using a standard colorimetric indicator of metabolic activity (CIMA) assay. In this assay, tetrazole reduction was evaluated as a measure of metabolic function that evaluates mitochondrial activity to determine the extent of cell proliferation within a culture. This assay is based on the reduction of yellow tetrazolium salt to purple formazan by mitochondrial reductases enzyme in viable cells, resulting in a color changed that confers a change in absorbance. […] From the results shown in Table 2 and FIGS. 4 and 5, the extracts were selected for additional fractionation and evaluated in the same manner.

For another series, the system named is PC3. The format is cell-based. The settings on record: PC3, SDS 5% control; 0 = 100.0. As for the experimental part: as §1, §2
The test system of series [1] is CCD1079SK (fibroblast, noncancerous but proliferating). The format is cell-based, human. The settings on record: SDS 5% control, 0 = 100.0, in % (unit assumed). As for the experimental part: as §1
(§3) Prepared extracts were assessed following chronic exposure conditions in which cells were seeded at 2×10^3 cells/well (96 wells plate) and incubated with test compounds for 72 h. Each compound was evaluated over a range of concentrations (0, 10, 25, 50 or 100 μg/ml). Cell proliferation was initially assessed using a standard colorimetric indicator of metabolic activity (CIMA) assay. In this assay, tetrazole reduction was evaluated as a measure of metabolic function that evaluates mitochondrial activity to determine the extent of cell proliferation within a culture. This assay is based on the reduction of yellow tetrazolium salt to purple formazan by mitochondrial reductases enzyme in viable cells, resulting in a color changed that confers a change in absorbance. Six human cell lines were selected for primary evaluation: U373 (glioblastoma-astrocytoma), A549 (lung carcinoma), THP-1 (acute monocytic leukemia), MCF7 (mammary gland adenocarcinoma), SKOV3 (ovarian adenocarcinoma), and CCD1079SK (fibroblast, noncancerous but proliferating). From the results shown in Table 2 and FIGS. 4 and 5, the extracts were selected for additional fractionation and evaluated in the same manner.
(§4) Lead crude extracts were fractionated into five fractions by C-18 SPE column separation using 15 ml each of 5% methanol (fraction 1), 25% methanol (fraction 2), 50% methanol (fraction 3), 100% methanol (fraction 4) and […] (fraction 5). Extracts were fractionated and the resulting fractions were evaluated using CIMA assay. Bio-assay guided fractionation provided detailed information regarding the compound(s) responsible for specific bioactivity.

The subject of series [2] is MCF7 (mammary gland adenocarcinoma). The format is cell-based, human. The settings on record: MCF7, SDS 5% control; 0 = 100.0; in % (unit assumed). As for the experimental part:
as §1, §3, §4

Series [3] relates to SKOV3 (ovarian adenocarcinoma). The format is cell-based, human. The note with it: SKOV3, SDS 5% control; 0 = 100.0; in % (unit assumed). Here is the method:
as §1, §3, §4

For series [4], the system named is THP-1 (acute monocytic leukemia). The class given is cell-based, human. The note with it: THP-1, SDS 5% control; 0 = 100.0; in % (unit assumed). Here is the method:
as §1, §3, §4

Series [5] concerns U373 (glioblastoma-astrocytoma). The class given is cell-based, human. The settings on record: U373, SDS 5% control; 0 = 100.0; in % (unit assumed). As for the experimental part:
as §1, §3, §4

Take `CCCCCCCCCCCCOS(=O)(=O)[O-].[Na+]` [SDS]: the AVG (viability, CIMA assay) in the series on A549 (lung carcinoma) is 68.7%; in the series with PC3 it was 77.3%; in series [1], 9.4 and 11.3; in series [2] it was 44.1 and 49.9; in series [3], 78.9 and 56.5; in series [4], 20.3 and 36.2. Further, in series [5], the “AVG (viability, CIMA assay)” value is 48.4 and 58.1.
